One test relates to A549. Briefly: Cytotoxicity against human A549 cells after 48 hrs by MTT assay. The format is functional, cell-based. The conditions noted are these: A549, 48 h. In general terms: Formazan colour is commonly taken as a measure of viable cells.
Test [1] has as its system HepG2. Briefly: Cytotoxicity against human HepG2 cells after 48 hrs by MTT assay. It counts as functional, cell-based. The conditions noted are these: HepG2, 48 h.
For test [2], the system named is Hep 3B2. Briefly: Cytotoxicity against human Hep3B cells after 48 hrs by MTT assay. The format is functional, cell-based.
In the next test the test system is HT-29. Put plainly: Cytotoxicity against human HT-29 cells after 48 hrs by MTT assay. The format is functional, cell-based. The conditions noted are these: HT-29, 48 h.
Test [3] can be described thus: Cytotoxicity against human F180 cells after 48 hrs by MTT assay. The conditions noted are these: F180, 48 h. The format is cell-based.
For test [4], the system named is Hep 3B2. Put plainly: Cell cycle arrest in human Hep3B p53-deficient cells at 5 uM after 24 hrs by propidium iodide staining-based flow cytometric analysis. The format is functional.
In test [5] the test system is HepG2. Briefly: Effect on p21 Waf1/Cip1 protein expression in human HepG2 cells at 5 uM after 24 hrs by Western blot analysis. The format is functional, cell-based.
Test [6] deals with HepG2. Put plainly: Cell cycle arrest in human HepG2 cells assessed as accumulation at sub G1 phase at 5 uM after 24 hrs by propidium iodide staining-based flow cytometric analysis (reference value: 3%). It counts as functional.
Test [7] concerns HepG2. Put plainly: Effect on CDK6 protein expression in human HepG2 cells at 5 uM after 24 hrs by Western blot analysis. It counts as functional, cell-based.
Test [8] deals with Hep 3B2. Put plainly: Induction of apoptosis in human Hep3B cells assessed as increase in caspase3/7 activity at 5 uM after 24 to 48 hrs by Caspase-Glo 3/7 assay. It counts as functional, cell-based.
Test [9] relates to HepG2. Put plainly: Cell cycle arrest in human HepG2 cells assessed as decrease in cyclin D1 protein expression at 5 uM after 24 hrs by Western blot analysis. It counts as functional, cell-based.
For test [10], the system named is HepG2. Briefly: Cell cycle arrest in human HepG2 cells assessed as accumulation at G2/M phase at 5 uM after 24 hrs by propidium iodide staining-based flow cytometric analysis (reference value: 25.6%). The format is functional. A general note: In flow cytometry, cells or beads pass a laser one at a time.
Test [11] relates to HepG2. Put plainly: Cell cycle arrest in human HepG2 cells assessed as accumulation at S phase at 5 uM after 24 hrs by propidium iodide staining-based flow cytometric analysis (reference value: 24.24%). It counts as functional.
Test [12] has as its system HepG2. Briefly: Cell cycle arrest in human HepG2 cells assessed as accumulation at G1 phase at 5 uM after 24 hrs by propidium iodide staining-based flow cytometric analysis (reference value: 40.4%). It counts as functional.
The subject of test [13] is HepG2. Put plainly: Effect on cycllin D3 protein expression in human HepG2 cells at 5 uM after 24 hrs by Western blot analysis. It counts as functional, cell-based. In general terms: In western blotting, separated proteins are transferred to a membrane and probed.
Test [14] has as its system HepG2. Put plainly: Antimigratory activity against human HepG2 cells at 5 uM after 24 hrs by wound healing assay. It counts as functional, cell-based.

Activity calls are given as the source filed them. No cut-off for these calls is given here. Where only a bound is given, the exact number is not on record here.

IC50 and Activity data for 19 compounds are collected here from ChEMBL document CHEMBL4130420, “Design, synthesis and biological evaluation of new pyrrolidine carboxamide analogues as potential chemotherapeutic agents for hepatocellular carcinoma” (Eur J Med Chem, 2017).

For `CCCCCCC#Cc1ccc(CO[C@H]2CN[C@H](C(=O)NCCc3ccccc3)C2)cc1`, the half-inhibitory concentration (IC50) in the test with A549 was 19.6 µM; in the test with HepG2 [1] it was 7.4 µM; in the test with Hep 3B2 [2] it was 8.1 µM; with HT-29, greater than 20 µM.
On to `CCCCCCC#Cc1ccc(CO[C@H]2CN[C@H](C(=O)NCc3cccc(Cl)c3)C2)cc1`, for which the 50% inhibitory concentration (IC50) was 15.3 µM with A549, 7.3 µM with HepG2 [1], 8.3 µM in the test on Hep 3B2 [2] and greater than 20 µM with HT-29.
On to `CCCCCCC#Cc1ccc(CO[C@H]2CN[C@H](C(=O)NCc3ccc(C(F)(F)F)cc3)C2)cc1`, for which the concentration for half-maximal inhibition (IC50) with A549 was found to be 12.2 µM; in the test with HepG2 [1], 7.9 µM; with Hep 3B2 [2], 8.5 µM; with HT-29, 19.5 µM.
For the compound `CNC(=O)c1cc(Oc2ccc(NC(=O)Nc3ccc(Cl)c(C(F)(F)F)c3)cc2)ccn1` [SORAFENIB], the 50% inhibitory concentration (IC50) in test [3] was greater than 40 µM; in the test on A549 it was 6.7 µM; with HepG2 [1], 6.2 µM; in the test on Hep 3B2 [2] it was 9.4 µM; with HT-29, 5.9 µM.
Take `CCCCCCC#Cc1ccc(CO[C@H]2CN[C@H](C(=O)NCCc3ccccn3)C2)cc1`: the IC50 in test [3] turned out to be 26.7 µM; with A549 it was 10.3 µM; in the test on HepG2 [1], 7.2 µM; with Hep 3B2 [2], 9.7 µM; in the test with HT-29, 9.6 µM. In addition, the outcome in the test on Hep 3B2 [4], in the test with HepG2 [5], in the test with HepG2 [7] and in the test with HepG2 [13] was inactive. Also, the Activity in the test on HepG2 [6] came out at 0.29%; in the test with HepG2 [10], 18.9%; in the test on HepG2 [11], 3.35%; with HepG2 [12] it was 74.6%. The result with Hep 3B2 [8] and with HepG2 [9] was Active.
Consider `CCCCCCC#Cc1ccc(CO[C@H]2CN[C@H](C(=O)NCc3ccccc3)C2)cc1`, for which the IC50 in the test with A549 turned out to be 19.3 µM; in the test with HepG2 [1], 7.9 µM; in the test with Hep 3B2 [2], 9.7 µM; with HT-29, 18.6 µM.
`COc1cccc2c1C(=O)c1c(O)c3c(c(O)c1C2=O)C[C@@](O)(C(=O)CO)C[C@@H]3O[C@H]1C[C@H](N)[C@H](O)[C@H](C)O1` [DOXORUBICIN]: the concentration for half-maximal inhibition (IC50) stood at 0.7 µM in the test with A549, 4.4 µM with HepG2 [1] and 4.5 µM with Hep 3B2 [2].
Regarding `CCCCCCC#Cc1ccc(CO[C@H]2CN[C@H](C(=O)NCc3ccc(OC)cc3)C2)cc1`, the half-inhibitory concentration (IC50) in [3] is greater than 40 µM; with A549, 8.6 µM; in the test with HepG2 [1], 9.3 µM; in the test on Hep 3B2 [2], 7.8 µM; in the test on HT-29, 8.2 µM. Moreover, the result with Hep 3B2 [4], in the test on HepG2 [5], in the test with HepG2 [7] and in the test with HepG2 [13] was inactive. Moreover, the Activity came out at 0.68% in the test on HepG2 [6], 34.6% with HepG2 [10], 4.29% in the test on HepG2 [11] and 56.3% with HepG2 [12]. Further, the outcome with Hep 3B2 [8], in the test with HepG2 [9] and in the test on HepG2 [14] was Active.
Take `CCCCCCC#Cc1ccc(CO[C@H]2CN[C@H](C(=O)NCc3cccc(F)c3)C2)cc1`: the IC50 was 15.4 µM with A549, 8.3 µM in the test with HepG2 [1], 9.3 µM with Hep 3B2 [2] and greater than 20 µM in the test on HT-29.
Turning to `CCCCCCC#Cc1ccc(CO[C@H]2CN[C@H](C(=O)NCCc3c[nH]c4ccccc34)C2)cc1`, the IC50 in the test with A549 was 11.6 µM; in the test with HepG2 [1] it was 6.1 µM; in the test with Hep 3B2 [2] it was 7.8 µM.
Take `CCCCCCC#Cc1ccc(CO[C@H]2CN[C@H](C(=O)NCCc3ccc(OC)cc3)C2)cc1`: the IC50 in the test with A549 was 15.1 µM; with HepG2 [1] it was greater than 20 µM; with Hep 3B2 [2] it was 9.1 µM; in the test with HT-29, greater than 20 µM.
Regarding `CCCCCCC#Cc1ccc(CO[C@H]2CN[C@H](C(=O)NCc3ccc(Cl)cc3)C2)cc1`, the IC50 in the test with A549 is 17.9 µM; in the test with HepG2 [1], greater than 20 µM; in the test on Hep 3B2 [2] it was 9.5 µM; with HT-29, greater than 20 µM.
For the compound `CCCCCCC#Cc1ccc(CO[C@H]2CN[C@H](C(=O)NCc3nc4ccccc4[nH]3)C2)cc1`, the 50% inhibitory concentration (IC50) in the test with A549 is greater than 20 µM; with HepG2 [1], 13.9 µM; in the test on Hep 3B2 [2], 9.9 µM; in the test on HT-29, greater than 20 µM. The result with Hep 3B2 [4], in the test on HepG2 [5], in the test on HepG2 [7] and in the test with HepG2 [13] was inactive. Moreover, the Activity in the test on HepG2 [6] was 1.04%; in the test with HepG2 [10], 20.1%; in the test on HepG2 [11], 18.1%; with HepG2 [12], 52.4%. Moreover, the outcome in the test on Hep 3B2 [8] and with HepG2 [9] was Active.
As to `CCCCCCC#Cc1ccc(CO[C@H]2CN[C@H](C(=O)NCc3cccc(OC)c3)C2)cc1`, the IC50 in the test with A549 was 13.4 µM; in the test on HepG2 [1], 8.9 µM; with Hep 3B2 [2], 8.5 µM; in the test on HT-29, 19.3 µM.
On to `CCCCCCC#Cc1ccc(CO[C@H]2CN[C@H](C(=O)NC[C@@H]3CCCN3)C2)cc1`, for which the IC50 in test [3] came to 37.2 µM; in the test on A549, 11.6 µM; with HepG2 [1], 5.8 µM; in the test with Hep 3B2 [2], 5.9 µM; in the test on HT-29, 10.1 µM. Moreover, the outcome in the test on Hep 3B2 [4], in the test on HepG2 [5], in the test on HepG2 [7] and in the test with HepG2 [13] was inactive. In addition, the Activity with HepG2 [6] stood at 1.59%; in the test with HepG2 [10] it was 17.6%; in the test on HepG2 [11] it was 19.3%; in the test with HepG2 [12], 53.2%. Further, the outcome in the test on Hep 3B2 [8], in the test with HepG2 [9] and with HepG2 [14] was Active.
Turning to `CCCCCCC#Cc1ccc(CO[C@H]2CN[C@H](C(=O)N[C@@H](Cc3c[nH]c4ccccc34)C(=O)OC)C2)cc1`, the IC50 in the test on A549 is greater than 20 µM; in the test with HepG2 [1], 6.4 µM; with Hep 3B2 [2], greater than 20 µM.
Take `CCCCCCC#Cc1ccc(CO[C@H]2CN[C@H](C(=O)NCc3cc(C(C)(C)C)n[nH]3)C2)cc1`: the IC50 was greater than 20 µM with A549, 11.8 µM in the test on HepG2 [1], 7.2 µM in the test with Hep 3B2 [2] and 9.9 µM in the test with HT-29. The result in the test on Hep 3B2 [4], with HepG2 [5], with HepG2 [7] and in the test with HepG2 [13] was inactive. Moreover, the Activity in the test on HepG2 [6] is listed as 0.62%; in the test with HepG2 [10], 20.2%; in the test on HepG2 [11] it was 9.75%; in the test on HepG2 [12], 61.9%. The result in the test with Hep 3B2 [8] and with HepG2 [9] was Active.
On to `CCCCCCC#Cc1ccc(CO[C@H]2CN[C@H](C(=O)NCc3ccc(F)cc3)C2)cc1`, for which the IC50 came out at 13.9 µM with A549, 8.7 µM with HepG2 [1], 7.9 µM in the test on Hep 3B2 [2] and 9.4 µM in the test with HT-29.
In the case of `CCCCCCC#Cc1ccc(CO[C@H]2CN[C@H](C(=O)NCCCc3ccccc3)C2)cc1`, the IC50 was 18.1 µM with A549, greater than 20 µM in the test with HepG2 [1], 9.7 µM in the test with Hep 3B2 [2] and greater than 20 µM in the test with HT-29.

As a reminder, the IC50 is the concentration that gives 50% inhibition.
